Test results reported in patent US20260364186A1, “Chemical Conjugates, Compositions, and Methods of Preparation and Use Thereof” (Transfection Holdings Limited, priority 2022, published 2026).
Entries after “also recorded” stand apart in the source; their conditions may differ.

What was measured:
Jurkat cells = experiment: Time course of uptake by FACS (Example 6); format: cell-based, human; settings: 200 nM
Description: FIG. 6: Time course of uptake for 124, 126, and 132 conjugate compounds. Tests were performed using 200 nM each conjugate and 5, 30 and 60 min incubation with Jurkat cells (immortalized T lymphocytes). Mean fluorescent intensities (MFI). 1,200 cells sorted by FACS. Bars represent mean±SD. Results represents a single experiment done in triplicate.
Materials and methods: Jurkat cells were diluted on RPMI media (supplemented with 10% FBS+1% penicillin-streptomycin) to 400 cells/μL. 5 μL of […] stock solutions in DMSO from 124, 126 and 132 were diluted with 1245 μL of RPMI media (supplemented with 10% FBS+1% penicillin-streptomycin) to give a 400 nM solution. 250 μL of cell suspensions were then added to each well in a 96 well plate and 250 μL of conjugate solutions (giving a 200 nM final concentration). 250 μL of media only was added to the DMSO control wells. Incubation was carried out for 5, 30 and 60 minutes at 37 °C in triplicate wells for each compound and time point.

[1] = system: NZM011, NZM009, NZM012, NZM022 and NZM077 cells; experiment: Flow cytometry uptake into metastatic melanoma lines (Example 11); format: cell-based, human; settings: 200 nM, 30 minutes
Description: FIG. 11: Uptake for compounds 124, 126, and 132 at 200 nM and 30 minute incubation with melanoma cell lines: NZM12 (NZM012) (BRAF V600E mutant metastatic melanoma, homozygous deletion CDKN2A and low invasive cell line), NZM77 (NZM077) (BRAF V600E mutant metastatic melanoma and missense NF1), NZM22 (NZM022) (BRAF G466A mutant metastatic melanoma, P53 241S/T mutant, NF1 non-frameshift insertion and PTEN epigenetic silencing). NZM9 (NZM009) (P53 179C/T mutant and homozygous silencing CDKN2A). NZM11 (NZM011) (BRAF V600E mutant metastatic melanoma and homozygous deletion CDKN2A), as positive control. Mean fluorescent intensities (MFI). 1,500-2,000 cells were obtained. Bars represent mean±SD. Results are from a single experiment done in triplicate. Cells were analysed by FACS.
Methods: For screening, NZM011, NZM009, NZM012, NZM022 and NZM077 cells were suspended at 250 cells per μL in MEMα media and 200 μL was dispensed into 96 well plates. The cells were left to settle for 24 hours for NZM011, NZM012 and NZM077 and 48 hours for NZM009 and NZM022 at 37 °C, 5% O2, 5% CO2. Before addition to the cells, 10 μL of 10 mM stock solutions in DMSO of compounds 124, 126, and 132 were diluted with 1% FBS MEMα media to give a 200 nM solution.
After the appropriate settle time, the media was removed from the 96 well plates and 200 μL of 200 nM conjugate solutions and DMSO control were dispensed to each well (in triplicate) and incubated for 30 minutes at 37 °C, 5% O2, 5% CO2. After 30 minutes, the media was removed and cells washed with PBS. Next, 100 μL of TrypLE trypsin (ThermoFisher Scientific) was added to each well and incubated for 5 minutes at 37 °C. After this, 150 μL of MEMα media (plus 1% FBS for NZM011, NZM012 and NZM077; plus 5% FBS for NZM009 and NZM022) were added. Cells were analysed by flow cytometry using a FACS biosort and FITC filter. Flow cytometry results represent the mean of the fluorescence intensities (in arbitrary units) measured for cells sorted in every sample.

[2] = system: melanoma tumours (NZM11 cells); experiment: Whole body fluorescent cryo-imaging, tumour targeting (Example 13); format: in vivo, mouse; settings: 0.7 mg/kg i.v., 1 hour post dosing
Description: Materials and methods: Compound 124 was supplied as a 10 mM stock solution in DMSO. NZM011 cells were grown in AMEM, 5% FBS, 5 μg/mL insulin, 5 μg/mL transferrin, 5 ng/mL sodium selenite at 37 °C with 5% O2, 90% N2 5% CO2. The study was performed in 6-week-old male NIH-III athymic mice (strain code 201). Work was carried out by Ichor Biosciences La Fayette NY, USA. Mice were injected on one flank with 5×10^6 NZM11 cells in a 50:50 matrigel:media suspension with a 22G needle. When tumours reach over 500 mm3 the mice were administered intravenously (tail vein) with a solution of compound 124 in phosphate buffered saline at a dose of 0.7 mg/kg. The mice were euthanized at 1 hour or 6 hours post dosing and frozen for cryoimaging. A control mouse received no tumour cells or compound 124 and was euthanized and frozen for cryoimaging at the same time as the treated mice.
Processed animals were cryoimaged imaged at BioInvision in Cleveland Ohio. Whole animal was sectioned at 40 microns and imaged using brightfield at fluorescent modes (503 nm). In-plane pixel size 10 microns. Mouse #1 with tumour on one flank at 500 mm3, treated with compound 124 (0.7 mg/kg) and euthanised 1 hour post treatment. Mouse #6 no tumour or compound 124 treatment euthanised on same day.

CC1=CC(C)=[N+]2C1=Cc1ccc(CCCn3cc(CCNC(=O)/C=C/NC(=O)[C@H](O)C(C)(C)CO)nn3)n1[B-]2(F)F [Compound 124]
incubation time to saturation point (Jurkat cells): ≤ 30 min | uptake, in words (Jurkat cells; 5 to 60 minutes): increased between 5 and 30 minutes; also recorded: selective uptake | fluorescent intensity compared to 126 and 132 (Jurkat cells; 5 minutes): double | fluorescent intensity compared to 126 and 132 (Jurkat cells; 30 minutes): six times greater | times greater fluorescence than 126 and 132 (Jurkat cells; 60 minutes): 6 times | uptake, in words [1]: highest uptake levels; also recorded: consistent, selective and high level of uptake | times greater uptake than conjugate 132 ([1]; five cell lines): 1.5-3 times | 124-specific fluorescence in tumour [2]: 124-specific fluorescence was also seen in the region of the implanted tumour and Specific 124-fluorescence was observed in the region of the tumour and specific green fluorescence from compound 124 was seen in the proximity of the tumour and specifically targeted and bound to tumour in vivo
